Among the data in BindingDB's records for doi:10.7270/Q2FQ9V6B (Burnham Center For Chemical Genomics, 2012) are IC50 values, retold here.

For this experiment, the target named is T1, Tyrosine-protein phosphatase non-receptor type 22 (Homo sapiens, UniProt Q9Y2R2).
T1 sequence (Q9Y2R2 whole entry): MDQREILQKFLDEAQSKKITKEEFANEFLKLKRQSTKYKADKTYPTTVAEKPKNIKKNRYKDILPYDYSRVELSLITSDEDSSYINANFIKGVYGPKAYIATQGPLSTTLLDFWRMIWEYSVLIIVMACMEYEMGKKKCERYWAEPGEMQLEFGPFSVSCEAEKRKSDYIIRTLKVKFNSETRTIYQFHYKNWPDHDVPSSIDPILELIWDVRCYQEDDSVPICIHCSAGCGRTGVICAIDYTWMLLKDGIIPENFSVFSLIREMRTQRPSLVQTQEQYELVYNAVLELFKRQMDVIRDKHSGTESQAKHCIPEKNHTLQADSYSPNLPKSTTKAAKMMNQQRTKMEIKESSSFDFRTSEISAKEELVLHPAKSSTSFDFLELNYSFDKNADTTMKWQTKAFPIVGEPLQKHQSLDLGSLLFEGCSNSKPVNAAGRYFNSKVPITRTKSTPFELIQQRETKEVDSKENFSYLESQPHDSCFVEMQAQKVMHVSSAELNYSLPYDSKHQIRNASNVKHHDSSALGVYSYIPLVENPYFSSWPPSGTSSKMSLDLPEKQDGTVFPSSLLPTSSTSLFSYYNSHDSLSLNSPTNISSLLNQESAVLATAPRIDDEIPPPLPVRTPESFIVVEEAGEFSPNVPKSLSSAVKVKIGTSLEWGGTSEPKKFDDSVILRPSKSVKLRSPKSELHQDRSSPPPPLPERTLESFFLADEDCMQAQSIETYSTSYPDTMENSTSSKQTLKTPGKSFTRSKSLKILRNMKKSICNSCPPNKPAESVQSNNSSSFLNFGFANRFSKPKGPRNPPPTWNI
Briefly: PTPN22 phosphatase inhibition, dose response, selectivity assay for STEP inhibitor project, biochemical (AID 624241).
What is called IC50 is the concentration at which inhibition is half-maximal. A lower IC50 goes with greater potency in that assay. In turn, `O=S(=O)(Nc1ccc(Cl)cc1)c1ccc(N2CCOCC2)c(NC(=S)NCCN2CCOCC2)c1` came in with an IC50 of more than 100 µM.

Take `O=C(CCc1ccccc1)NNC(=O)c1ccc(NC(=O)c2ccccc2)cc1`: the IC50 was more than 100 µM.

Compound `COc1cccc(Nc2nn3c(=O)c4ccccc4nc3s2)c1` yielded an IC50 of more than 100 µM.

On to `O=C(N/N=C/c1ccncc1)c1cccc(S(=O)(=O)Nc2ccc(Cl)cc2)c1`, for which the IC50 is more than 100 µM.

`Cc1ccc(N=C(S)N(CCN(C)C)Cc2cccs2)c(C)c1` displayed an IC50 of more than 100 µM.

As to `NC(=O)C1(N2CCCCC2)CCN(C(=S)Nc2ccc(S(N)(=O)=O)cc2)CC1` [1'-({[4-(aminosulfonyl)phenyl]amino}carbonothioyl)-1,4'-bipiperidine-4'-carboxamide], the half-maximal inhibitory concentration (IC50) was more than 100 µM.

Consider `S=C(NCCc1ccccc1)Nc1c(Cl)cccc1Cl` [1-(2,6-dichlorophenyl)-3-(2-phenylethyl)thiourea], for which the IC50 is more than 100 µM.

For the compound `COc1ccc(NC(=S)NCCCN2CCCC2)cc1Cl` [1-(3-chloro-4-methoxyphenyl)-3-[3-(1-pyrrolidinyl)propyl]thiourea], the IC50 was more than 100 µM.

Turning to `CCCN(CC(=O)Nc1ccccc1OC)C(=O)Cc1ccc2c(c1)CCC2` [2-(2,3-dihydro-1H-inden-5-yl)-N-[2-[(2-methoxyphenyl)amino]-2-oxidanylidene-ethyl]-N-propyl-ethanamide], the IC50 was more than 100 µM.

As to `CCOc1cc(CN=Nc2nc(O)c(CC(=O)O)s2)ccc1OCc1ccc(Cl)cc1Cl` [2-[2-[(N''E)-N''-[4-(2,4-dichlorobenzyl)oxy-3-ethoxy-benzylidene]hydrazino]-4-keto-2-thiazolin-5-yl]acetic acid], the midpoint of inhibition, the IC50, lay at 7.26 µM.

`Cc1c(CC(=O)O)c(=O)oc2c(C)c(OCc3ccccc3Br)ccc12` [2-[7-[(2-bromophenyl)methoxy]-4,8-dimethyl-2-oxochromen-3-yl]acetic acid] displayed an IC50 of more than 100 µM.

For the compound `Cc1ccc(-c2nc(NC(=O)CSc3cc(C)c4ccccc4n3)ns2)cc1` [2-[(4-methyl-2-quinolyl)thio]-N-[5-(p-tolyl)-1,2,4-thiadiazol-3-yl]acetamide], the half-inhibitory concentration (IC50) is more than 100 µM.

Consider `Cc1c(CCC(=O)O)c(=O)oc2c(C)c(OCc3ccccc3Cl)ccc12` [3-[7-[(2-chlorophenyl)methoxy]-4,8-dimethyl-2-oxochromen-3-yl]propanoic acid], for which the IC50 was more than 100 µM.

With `O=C1Nc2ccc3sc4ccccc4c3c2C1=O` [3H-6-Thia-3-aza-cyclopenta[c]fluorene-1,2-dione], the IC50 was more than 100 µM.

`O=C(N/N=C/c1cccc([N+](=O)[O-])c1)c1ccc(Br)cc1` [4-bromo-N-[(E)-(3-nitrophenyl)methylideneamino]benzamide] displayed an IC50 of more than 100 µM.

Turning to `O=[N+]([O-])c1ccc(O)c(Nc2ncnc3ccccc23)c1` [4-nitro-2-(4-quinazolinylamino)phenol], the IC50 was more than 100 µM.

On to `O=C(N/N=C/c1ccc(Br)cc1)c1ccc(Br)o1` [5-bromanyl-N-[(E)-(4-bromophenyl)methylideneamino]furan-2-carboxamide], for which the IC50 is more than 100 µM.

`OCCN1CCN(C(=S)c2ccc(Cl)c(Cl)c2)CC1` [(3,4-dichlorophenyl)-[4-(2-hydroxyethyl)-1-piperazinyl]methanethione]: the IC50 is more than 100 µM.

As to `CCOc1ccc(C(=S)N2CCN(C)CC2)cc1` [(4-ethoxyphenyl)-(4-methyl-1-piperazinyl)methanethione], the IC50 is more than 100 µM.

Compound `Cc1ccc(C(=S)N2CCN(Cc3ccccc3)CC2)s1` [(5-methyl-2-thiophenyl)-[4-(phenylmethyl)-1-piperazinyl]methanethione] came in with a 50% inhibitory concentration (IC50) of more than 100 µM.

In turn, `CCc1ccc(OCC(=O)Nc2ccc(-c3nc4ccccc4o3)c(O)c2)cc1` [MLS000109444] returned an IC50 of more than 100 µM.

Consider `S=C1N=C2C(=C3SCCS3)CCCC2C(c2ccccc2)N1` (stereo not given) [MLS000516376], for which the IC50 is more than 100 µM.

As for `O=C(N/N=C/c1ccc(OC(=O)c2cccs2)cc1)c1cccc(F)c1` [MLS000576933], the IC50 was more than 100 µM.

As for `OCCN1CCN(C(=S)c2ccc(Br)cc2)CC1` [MLS000577024], the IC50 was more than 100 µM.

Compound `O=C(N/N=C/c1ccc(Cl)c([N+](=O)[O-])c1)c1ccc2c(c1)OCCO2` [MLS000587937] yielded an IC50 of more than 100 µM.

As to `COC(=O)Nc1sc2c(c1C(N)=O)CCC(C)C2` (stereo not given) [MLS000683996], the IC50 is more than 100 µM.

Compound `CC(C)(C)C(=O)Nc1ccc(C(=O)Nc2cccc(Oc3ccc(C(=O)O)c(C(=O)O)c3)c2)cc1` [MLS001181252] yielded an IC50 of more than 100 µM.

`CCOc1ccc(/C=N/NC(=O)c2cc3c(OC)cccc3[nH]2)cc1` [MLS001216500] yielded an IC50 of more than 100 µM.

For `CSc1ccc(CN=Nc2ccc(S(=O)(=O)Nc3ccccc3C(=O)O)cc2[N+](=O)[O-])cc1` [MLS002245633], 2.82 µM corresponded to half-maximal inhibition (IC50).

For `O=C(N/N=C/C1C=CC=CC1=O)c1cccc([N+](=O)[O-])c1` (stereo not given) [MLS002667988], the IC50 was more than 100 µM.

For `O=C(Nc1cccc2c(=O)[nH][nH]c(=O)c12)c1ccc([N+](=O)[O-])cc1` [MLS003171605], the IC50 was more than 100 µM.

Compound `S=C(c1cn(CCOc2ccccc2)c2ccccc12)N1CCCC1` [MLS-0109562.0001] displayed an IC50 of more than 100 µM.

The compound `COc1cc(Cl)ccc1N=C(S)N(CCCN1CCOCC1)Cc1cn(C)c2ccccc12` [N'-(4-chloro-2-methoxyphenyl)-N-[(1-methyl-1H-indol-3-yl)methyl]-N-(3-morpholin-4-ylpropyl)thiourea] registered an IC50 of more than 100 µM.

`COc1cccc(-c2cc(C(=O)Nc3nc4ccccc4s3)c3ccccc3n2)c1` [N-(1,3-benzothiazol-2-yl)-2-(3-methoxyphenyl)-4-quinolinecarboxamide]: the IC50 was more than 100 µM.

For the compound `O=C(N/N=C/c1cccc(Br)c1)c1ccc(N2CCCC2=O)cc1` [N-[(E)-(3-bromophenyl)methylideneamino]-4-(2-oxidanylidenepyrrolidin-1-yl)benzamide], the IC50 is more than 100 µM.

`O=C(COc1ccc(/C=N/NC(=O)c2ccccc2O)cc1)Nc1ccccc1` [N-[(E)-[4-(2-anilino-2-oxoethoxy)phenyl]methylideneamino]-2-hydroxybenzamide]: the IC50 is more than 100 µM.

As to `COc1ccc(OC)c(-n2c(O)c3o[nH]c(-c4ccccc4Cl)c-3c2=O)c1` [SMR000046218], the IC50 is more than 100 µM.

In turn, `CCN1CCN(C(=S)c2ccc(Cl)c(Cl)c2)CC1` [SMR000143195] showed an IC50 of more than 100 µM.

`N=C1S/C(=C\c2ccc(O)cc2)C(=O)N1c1ccc(F)cc1` [SMR000298434] registered a half-maximal inhibitory concentration (IC50) of more than 100 µM.

`CCOC(=O)N1CCC(N(CCN(C)C)C(=S)Nc2ccc(Oc3ccccc3)cc2)CC1` [SMR000311544] showed an IC50 of more than 100 µM.

Regarding `COC(=O)c1ccccc1CSc1nsc(/C=C/N(C)C)c1C#N` [SMR000549393], the IC50 is more than 100 µM.

Compound `Cc1ccc(NC(=O)c2ccc3nc(N4CCOCC4)sc3c2)c(Cl)c1` [SMR000624920] registered an IC50 of more than 100 µM.

As to `Cc1sc2nc(CSC(C)C(=O)Nc3ccc(Cl)cn3)nc(O)c2c1C` (stereo not given) [SMR001268769], the IC50 is more than 100 µM.

In turn, `O=C(NN=Cc1ccccc1O)NN=Cc1ccccc1O` [SMR001556943] gave an IC50 of more than 100 µM.

Compound `COc1ccc(CN=Nc2nc(O)c(CC(=O)O)s2)cc1OCc1ccc(Cl)cc1Cl` [[2-({3-[(2,4-dichlorobenzyl)oxy]-4-methoxybenzylidene}hydrazono)-4-oxo-1,3-thiazolidin-5-yl]acetic acid] returned a concentration for half-maximal inhibition (IC50) of 33.8 µM.
